Legend:
Rattus norvegicus [1] = assay: Clearance in Wistar rat assessed as 2-(4-(3,3-Difluoropyrrolidin-1-yl)phenyl)-5,7-difluoro-3-methylquinolin-4(1H)-one at 0.5 mg/kg, iv after 24 hrs by LC-MS/MS analysis; assay type: ADME, organism-based; details: in vivo
Rattus norvegicus [2] = assay: Oral bioavailability in Wistar rat assessed as 2-(4-(3,3-Difluoropyrrolidin-1-yl)phenyl)-5,7-difluoro-3-methylquinolin-4(1H)-one at 10 mg/kg administered via gavage after 24 hrs by LC-MS/MS analysis; assay type: ADME, organism-based; details: in vivo
[3] = Oral bioavailability in Wistar rat at 10 mg/kg administered via gavage after 24 hrs by LC-MS/MS analysis; assay type: ADME, organism-based; details: in vivo
Rattus norvegicus [4] = assay: AUC in Wistar rat assessed as 2-(4-(3,3-Difluoropyrrolidin-1-yl)phenyl)-5,7-difluoro-3-methylquinolin-4(1H)-one at 0.5 mg/kg, iv after 24 hrs by LC-MS/MS analysis; assay type: ADME, organism-based; set-up: time < 24 hr, dose 0.5 mg/kg, route intravenous; details: in vivo
Rattus norvegicus [5] = assay: Cmax in Wistar rat assessed as 2-(4-(3,3-Difluoropyrrolidin-1-yl)phenyl)-5,7-difluoro-3-methylquinolin-4(1H)-one at 10 mg/kg administered via oral gavage after 24 hrs by LC-MS/MS analysis; assay type: ADME, organism-based; set-up: dose 10 mg/kg, route oral; details: in vivo
Rattus norvegicus [6] = assay: Half life in Wistar rat assessed as 2-(4-(3,3-Difluoropyrrolidin-1-yl)phenyl)-5,7-difluoro-3-methylquinolin-4(1H)-one at 50 mg/kg administered via oral gavage after 24 hrs by LC-MS/MS analysis; assay type: ADME, organism-based; details: in vivo
Rattus norvegicus [7] = assay: Oral bioavailability in Wistar rat assessed as 2-(4-(3,3-Difluoropyrrolidin-1-yl)phenyl)-5,7-difluoro-3-methylquinolin-4(1H)-one at 50 mg/kg administered via gavage after 24 hrs by LC-MS/MS analysis; assay type: ADME, organism-based; details: in vivo
Rattus norvegicus [8] = assay: Volume of distribution in steady state in Wistar rat assessed as 2-(4-(3,3-Difluoropyrrolidin-1-yl)phenyl)-5,7-difluoro-3-methylquinolin-4(1H)-one at 0.5 mg/kg, iv after 24 hrs by LC-MS/MS analysis; assay type: ADME, organism-based; details: in vivo
[9] = Cmax in Wistar rat at 50 mg/kg administered via oral gavage after 24 hrs by LC-MS/MS analysis; assay type: ADME, organism-based; set-up: dose 50 mg/kg, route oral; details: in vivo
[10] = Prodrug activation in Sprague-Dawley rat assessed as 2-(4-(3,3-difluoropyrrolidin-1-yl)phenyl)-5,7-difluoro-3-methylquinolin-4(1H)-one formation in urine at 50 mg/kg, po via gavage up to 9 hrs by HPLC analysis; assay type: organism-based; details: in vivo
Rattus norvegicus [11] = assay: Cmax in Wistar rat assessed as 2-(4-(3,3-Difluoropyrrolidin-1-yl)phenyl)-5,7-difluoro-3-methylquinolin-4(1H)-one at 50 mg/kg administered via oral gavage after 24 hrs by LC-MS/MS analysis; assay type: ADME, organism-based; set-up: dose 50 mg/kg, route oral; details: in vivo
[12] = AUC in Wistar rat at 50 mg/kg administered via oral gavage after 24 hrs by LC-MS/MS analysis; assay type: ADME, organism-based; set-up: time < 24 hr, dose 50 mg/kg, route oral; details: in vivo
[13] = Retention time of compound by HPLC anlaysis
[14] = Drug metabolism in Sprague-Dawley rat assessed as M2 metabolite formation in bile at 50 mg/kg, po via gavage up to 9 hrs by HPLC analysis; assay type: ADME, organism-based; details: in vivo
Rattus norvegicus [15] = assay: Half life in Wistar rat assessed as 2-(4-(3,3-Difluoropyrrolidin-1-yl)phenyl)-5,7-difluoro-3-methylquinolin-4(1H)-one at 10 mg/kg administered via oral gavage after 24 hrs by LC-MS/MS analysis; assay type: ADME, organism-based; details: in vivo
[16] = AUC in Wistar rat at 10 mg/kg administered via oral gavage after 24 hrs by LC-MS/MS analysis; assay type: ADME, organism-based; set-up: dose 10 mg/kg, time < 24 hr, route oral; details: in vivo
[17] = Oral bioavailability in Wistar rat at 50 mg/kg administered via gavage after 24 hrs by LC-MS/MS analysis; assay type: ADME, organism-based; details: in vivo
[18] = Drug metabolism in Sprague-Dawley rat assessed as M3 metabolite formation in bile at 50 mg/kg, po via gavage up to 9 hrs by HPLC analysis; assay type: ADME, organism-based; details: in vivo
[19] = Drug metabolism in Sprague-Dawley rat assessed as 2-(4-(3,3-difluoro-4-hydroxypyrrolidin-1-yl)phenyl)-5,7-difluoro-3-methylquinolin-4(1H)-one metabolite formation in bile at 50 mg/kg, po via gavage up to 9 hrs by HPLC analysis; assay type: ADME, organism-based; details: in vivo
[20] = Half life in Wistar rat at 50 mg/kg administered via oral gavage after 24 hrs by LC-MS/MS analysis; assay type: ADME, organism-based; details: in vivo
[21] = Drug metabolism in Sprague-Dawley rat assessed as M3 metabolite formation in urine at 50 mg/kg, po via gavage up to 9 hrs by HPLC analysis; assay type: ADME, organism-based; details: in vivo
[22] = Cmax in Wistar rat at 10 mg/kg administered via oral gavage after 24 hrs by LC-MS/MS analysis; assay type: ADME, organism-based; set-up: dose 10 mg/kg, route oral; details: in vivo
Rattus norvegicus [23] = assay: AUC in Wistar rat assessed as 2-(4-(3,3-Difluoropyrrolidin-1-yl)phenyl)-5,7-difluoro-3-methylquinolin-4(1H)-one at 50 mg/kg administered via oral gavage after 24 hrs by LC-MS/MS analysis; assay type: ADME, organism-based; set-up: dose 50 mg/kg, time < 24 hr, route oral; details: in vivo
[24] = Prodrug activation in Sprague-Dawley rat assessed as 2-(4-(3,3-difluoropyrrolidin-1-yl)phenyl)-5,7-difluoro-3-methylquinolin-4(1H)-one formation in bile at 50 mg/kg, po via gavage up to 9 hrs by HPLC analysis; assay type: organism-based; details: in vivo
Rattus norvegicus [25] = assay: AUC in Wistar rat assessed as 2-(4-(3,3-Difluoropyrrolidin-1-yl)phenyl)-5,7-difluoro-3-methylquinolin-4(1H)-one at 10 mg/kg administered via oral gavage after 24 hrs by LC-MS/MS analysis; assay type: ADME, organism-based; set-up: dose 10 mg/kg, time < 24 hr, route oral; details: in vivo
[26] = Half life in Wistar rat at 10 mg/kg administered via oral gavage after 24 hrs by LC-MS/MS analysis; assay type: ADME, organism-based; details: in vivo
[27] = Drug metabolism in Sprague-Dawley rat assessed as 2-(4-(3,3-difluoro-4-hydroxypyrrolidin-1-yl)phenyl)-5,7-difluoro-3-methylquinolin-4(1H)-one metabolite formation in urine at 50 mg/kg, po via gavage up to 9 hrs by HPLC analysis; assay type: ADME, organism-based; details: in vivo
Rattus norvegicus [28] = assay: Half life in Wistar rat assessed as 2-(4-(3,3-Difluoropyrrolidin-1-yl)phenyl)-5,7-difluoro-3-methylquinolin-4(1H)-one at 0.5 mg/kg, iv after 24 hrs by LC-MS/MS analysis; assay type: ADME, organism-based; details: in vivo
[29] = Drug metabolism in Sprague-Dawley rat assessed as M1 metabolite formation in bile at 50 mg/kg, po via gavage up to 9 hrs by HPLC analysis; assay type: ADME, organism-based; details: in vivo

Structure (SMILES): CC(=O)Oc1c(C)c(-c2ccc(N3CCC(F)(F)C3)cc2)nc2cc(F)cc(F)c12
- CL (Rattus norvegicus [1]): 0.524 L/h/kg
- F (Rattus norvegicus [2]): 28%
- bioavailability [3]: 63.8%
- AUC (Rattus norvegicus [4]): 0.964 µg·h/mL
- Cmax (Rattus norvegicus [5]): 0.61 µg/mL
- t1/2 (Rattus norvegicus [6]): 4.2 h
- F (Rattus norvegicus [7]): 17.1%
- Vdss (Rattus norvegicus [8]): 0.291 L/kg
- Cmax [9]: 4 µg/mL
- Drug metabolism [10]: Metabolite_Detected
- Cmax (Rattus norvegicus [11]): 1.4 µg/mL
- AUC at 24 h [12]: 29.6 µg·h/mL
- Retention time [13]: 14.3 min
- Drug metabolism [14]: Metabolite_Detected
- t1/2 (Rattus norvegicus [15]): 3.8 h
- AUC at 24 h [16]: 12.3 µg·h/mL
- bioavailability [17]: 30.7%
- Drug metabolism [18]: Metabolite_Detected
- Drug metabolism [19]: Metabolite_Detected
- half-life [20]: 2.3 h
- Drug metabolism [21]: Metabolite_Detected
- Cmax [22]: 1.7 µg/mL
- AUC (Rattus norvegicus [23]): 16.5 µg·h/mL
- Drug metabolism [24]: Metabolite_Detected
- AUC (Rattus norvegicus [25]): 5.4 µg·h/mL
- half-life [26]: 3.9 h
- Drug metabolism [27]: Metabolite_Detected
- t1/2 (Rattus norvegicus [28]): 1.48 h
- Drug metabolism [29]: Metabolite_Detected

— ChEMBL document CHEMBL4049411, “Rational Design, Synthesis, and Biological Evaluation of Heterocyclic Quinolones Targeting the Respiratory Chain of Mycobacterium tuberculosis” (J Med Chem, 2017)
